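Results reflect a 48-hour exposure of cells in 96-well plates to compound at five concentrations. GI50 is the concentration that inhibits growth by half.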 Activity calls are given as the source filed them. Rule as the data show it: active = GI50 up to about 1.1 µM and inactive = higher.
Assays:
Assay in all cases: DTP human tumour cell line panel, 48 h
NCI-H226 = tested on: NCI-H226
OVCAR-4 = tested on: OVCAR-4
A498 = tested on: A498
OVCAR-3 = tested on: OVCAR-3
K562 = tested on: K562
SF-268 = tested on: SF-268
CCRF-CEM = tested on: CCRF-CEM
SW-620 = tested on: SW-620
UACC-257 = tested on: UACC-257
DLD-1 = tested on: DLD-1
SNB-19 = tested on: SNB-19
SK-MEL-2 = tested on: SK-MEL-2
RPMI-8226 = tested on: RPMI-8226
SR = tested on: SR
Malme-3M = tested on: Malme-3M
786-0 = tested on: 786-0
HOP-92 = tested on: HOP-92
SK-MEL-28 = tested on: SK-MEL-28
HCC 2998 = tested on: HCC 2998
SNB-78 = tested on: SNB-78
NCI-H23 = tested on: NCI-H23
CAKI-1 = tested on: CAKI-1
HL-60 = tested on: HL-60
SN12C = tested on: SN12C
SNB-75 = tested on: SNB-75
HOP-62 = tested on: HOP-62
UACC-62 = tested on: UACC-62
A549 = tested on: A549
UO-31 = tested on: UO-31
SK-OV-3 = tested on: SK-OV-3
SF-539 = tested on: SF-539
HT-29 = tested on: HT-29
IGROV-1 = tested on: IGROV-1
NCI-H522 = tested on: NCI-H522
TK-10 = tested on: TK-10
XF498 = tested on: XF498
COLO 205 = tested on: COLO 205
MOLT-4 = tested on: MOLT-4
HCT-116 = tested on: HCT-116
M14 = tested on: M14
DMS-114 = tested on: DMS-114
DMS-273 = tested on: DMS-273
KM12 = tested on: KM12
M19-MEL = tested on: M19-MEL
SK-MEL-5 = tested on: SK-MEL-5
EKVX = tested on: EKVX
SF-295 = tested on: SF-295
LXFL 529 = tested on: LXFL 529
OVCAR-8 = tested on: OVCAR-8
U-251 = tested on: U-251
LOX IMVI = tested on: LOX IMVI
OVCAR-5 = tested on: OVCAR-5
HCT-15 = tested on: HCT-15
ACHN = tested on: ACHN
NCI-H460 = tested on: NCI-H460

**Q.** Which results are given for `O=C(c1ccncc1)n1nc(-c2ccccc2)c(/N=N/c2ccc([N+](=O)[O-])cc2)c1-c1ccccc1`?
**A.** GI50 (NCI-H226): 2.37 µM (inactive); GI50 (OVCAR-4): 15 µM (inactive); GI50 (A498): > 100 µM (inactive); GI50 (OVCAR-3): 50.9 µM (inactive); GI50 (K562): 54.7 µM (inactive); GI50 (SF-268): 49.5 µM (inactive); GI50 (CCRF-CEM): > 10 µM (inactive); GI50 (SW-620): > 100 µM (inactive); GI50 (UACC-257): 92.3 µM (inactive); GI50 (DLD-1): > 100 µM (inactive); GI50 (SNB-19): 31.6 µM (inactive); GI50 (SK-MEL-2): 77.8 µM (inactive); GI50 (RPMI-8226): 28.4 µM (inactive); GI50 (SR): 45.3 µM (inactive); GI50 (Malme-3M): 90.6 µM (inactive); GI50 (786-0): > 100 µM (inactive); GI50 (HOP-92): 27.5 µM (inactive); GI50 (SK-MEL-28): > 100 µM (inactive); GI50 (HCC 2998): 71.3 µM (inactive); GI50 (SNB-78): 14.8 µM (inactive); GI50 (NCI-H23): 22.6 µM (inactive); GI50 (CAKI-1): 78.5 µM (inactive); GI50 (HL-60): 89.3 µM (inactive); GI50 (SN12C): > 100 µM (inactive); GI50 (SNB-75): 12.6 µM (inactive); GI50 (HOP-62): 39.4 µM (inactive); GI50 (UACC-62): 90.8 µM (inactive); GI50 (A549): 55.7 µM (inactive); GI50 (UO-31): 15.9 µM (inactive); GI50 (SK-OV-3): 94.8 µM (inactive); GI50 (SF-539): 89.5 µM (inactive); GI50 (HT-29): 38.7 µM (inactive); GI50 (IGROV-1): > 100 µM (inactive); GI50 (NCI-H522): 66.7 µM (inactive); GI50 (TK-10): 57.8 µM (inactive); GI50 (XF498): 57.8 µM (inactive); GI50 (COLO 205): 79.8 µM (inactive); GI50 (MOLT-4): 48.6 µM (inactive); GI50 (HCT-116): 73.6 µM (inactive); GI50 (M14): 92 µM (inactive); GI50 (DMS-114): 24.4 µM (inactive); GI50 (DMS-273): > 100 µM (inactive); GI50 (KM12): 34.8 µM (inactive); GI50 (M19-MEL): > 100 µM (inactive); GI50 (SK-MEL-5): 27.3 µM (inactive); GI50 (EKVX): 3.27 µM (inactive); GI50 (SF-295): 44.7 µM (inactive); GI50 (LXFL 529): 13.1 µM (inactive); GI50 (OVCAR-8): 91.2 µM (inactive)

**Q.** Which GI50 (NCI-H226) does the source give for `COc1ccccc1/C=C1\C(=O)N(C(=O)c2ccc(NC(C)=O)cc2)N=C1C` here?
**A.** Its GI50 is > 100 µM (inactive).

**Q.** And the GI50 (OVCAR-4)?
**A.** Its GI50 is > 100 µM (inactive).

**Q.** And the GI50 (U-251)?
**A.** Its GI50 is > 100 µM (inactive).

**Q.** What about the GI50 (OVCAR-3) of the same molecule?
**A.** The GI50 was > 100 µM (inactive).

**Q.** And the GI50 (K562)?
**A.** The GI50 was > 100 µM (inactive).

**Q.** And the GI50 (SF-268)?
**A.** The GI50 was > 100 µM (inactive).

**Q.** And the GI50 (CCRF-CEM)?
**A.** Its GI50 is > 100 µM (inactive).

**Q.** And the GI50 (SW-620)?
**A.** The GI50 was > 100 µM (inactive).

**Q.** And the GI50 (UACC-257)?
**A.** Its GI50 is > 100 µM (inactive).

**Q.** What about the GI50 (DLD-1) of the same molecule?
**A.** The GI50 was > 100 µM (inactive).

**Q.** And the GI50 (SNB-19)?
**A.** Its GI50 is > 100 µM (inactive).

**Q.** What about the GI50 (SK-MEL-2) of the same molecule?
**A.** Its GI50 is > 100 µM (inactive).

**Q.** What about the GI50 (RPMI-8226) of the same molecule?
**A.** The GI50 was > 100 µM (inactive).

**Q.** And the GI50 (SR)?
**A.** Its GI50 is > 100 µM (inactive).

**Q.** What about the GI50 (Malme-3M) of the same molecule?
**A.** Its GI50 is > 100 µM (inactive).

**Q.** And the GI50 (786-0)?
**A.** The GI50 was > 100 µM (inactive).

**Q.** What about the GI50 (SK-MEL-28) of the same molecule?
**A.** Its GI50 is > 100 µM (inactive).

**Q.** And the GI50 (HCC 2998)?
**A.** The GI50 was > 100 µM (inactive).

**Q.** And the GI50 (SNB-78)?
**A.** Its GI50 is > 100 µM (inactive).

**Q.** What about the GI50 (NCI-H23) of the same molecule?
**A.** Its GI50 is > 100 µM (inactive).

**Q.** And the GI50 (CAKI-1)?
**A.** Its GI50 is > 100 µM (inactive).

**Q.** What about the GI50 (HL-60) of the same molecule?
**A.** Its GI50 is > 100 µM (inactive).

**Q.** And the GI50 (LOX IMVI)?
**A.** Its GI50 is > 100 µM (inactive).

**Q.** And the GI50 (SN12C)?
**A.** Its GI50 is > 100 µM (inactive).

**Q.** And the GI50 (SNB-75)?
**A.** The GI50 was > 100 µM (inactive).

**Q.** And the GI50 (HOP-62)?
**A.** Its GI50 is > 100 µM (inactive).

**Q.** And the GI50 (OVCAR-5)?
**A.** Its GI50 is > 100 µM (inactive).

**Q.** What about the GI50 (A549) of the same molecule?
**A.** Its GI50 is > 100 µM (inactive).

**Q.** What about the GI50 (UO-31) of the same molecule?
**A.** Its GI50 is > 100 µM (inactive).

**Q.** And the GI50 (SF-539)?
**A.** The GI50 was > 100 µM (inactive).

**Q.** What about the GI50 (HT-29) of the same molecule?
**A.** Its GI50 is > 100 µM (inactive).

**Q.** And the GI50 (NCI-H522)?
**A.** Its GI50 is > 100 µM (inactive).

**Q.** And the GI50 (TK-10)?
**A.** The GI50 was > 100 µM (inactive).

**Q.** And the GI50 (XF498)?
**A.** The GI50 was > 100 µM (inactive).

**Q.** And the GI50 (COLO 205)?
**A.** The GI50 was > 100 µM (inactive).

**Q.** And the GI50 (MOLT-4)?
**A.** Its GI50 is > 100 µM (inactive).

**Q.** And the GI50 (HCT-116)?
**A.** Its GI50 is > 100 µM (inactive).

**Q.** And the GI50 (DMS-114)?
**A.** Its GI50 is > 100 µM (inactive).

**Q.** And the GI50 (DMS-273)?
**A.** Its GI50 is > 100 µM (inactive).

**Q.** What about the GI50 (KM12) of the same molecule?
**A.** Its GI50 is > 100 µM (inactive).

**Q.** What about the GI50 (HCT-15) of the same molecule?
**A.** Its GI50 is > 100 µM.

**Q.** What about the GI50 (M19-MEL) of the same molecule?
**A.** Its GI50 is > 100 µM (inactive).

**Q.** And the GI50 (SK-MEL-5)?
**A.** Its GI50 is > 100 µM (inactive).

**Q.** What about the GI50 (EKVX) of the same molecule?
**A.** The GI50 was > 100 µM (inactive).

**Q.** What about the GI50 (ACHN) of the same molecule?
**A.** Its GI50 is > 100 µM (inactive).

**Q.** What about the GI50 (SF-295) of the same molecule?
**A.** The GI50 was > 100 µM (inactive).

**Q.** And the GI50 (NCI-H460)?
**A.** Its GI50 is > 100 µM (inactive).

**Q.** And the GI50 (OVCAR-8)?
**A.** The GI50 was > 100 µM (inactive).
